Experimental data published in ChEMBL document CHEMBL3886297, “Cinnamoyl inhibitors of transglutaminase” (2015).

Target: T1, Protein-glutamine gamma-glutamyltransferase 2 (Cavia cutleri, UniProt P08587)
T1 sequence (P08587 whole entry): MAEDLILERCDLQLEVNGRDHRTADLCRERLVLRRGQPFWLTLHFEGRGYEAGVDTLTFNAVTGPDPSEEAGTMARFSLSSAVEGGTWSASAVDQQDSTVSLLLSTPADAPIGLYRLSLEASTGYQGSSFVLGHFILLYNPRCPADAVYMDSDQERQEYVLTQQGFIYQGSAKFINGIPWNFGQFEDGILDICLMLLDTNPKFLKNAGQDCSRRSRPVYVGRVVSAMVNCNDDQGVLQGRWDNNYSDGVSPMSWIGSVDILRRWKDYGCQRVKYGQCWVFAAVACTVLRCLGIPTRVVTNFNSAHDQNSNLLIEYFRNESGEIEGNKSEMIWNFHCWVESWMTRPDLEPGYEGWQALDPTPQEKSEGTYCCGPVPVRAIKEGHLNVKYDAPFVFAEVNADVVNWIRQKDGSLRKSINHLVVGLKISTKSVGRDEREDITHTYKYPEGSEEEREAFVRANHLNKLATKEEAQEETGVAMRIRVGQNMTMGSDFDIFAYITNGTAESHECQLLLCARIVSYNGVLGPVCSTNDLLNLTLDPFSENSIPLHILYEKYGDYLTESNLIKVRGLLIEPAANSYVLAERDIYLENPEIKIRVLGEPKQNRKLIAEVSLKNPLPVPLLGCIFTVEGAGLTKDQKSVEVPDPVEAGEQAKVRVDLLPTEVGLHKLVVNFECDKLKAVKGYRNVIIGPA
Test: Enzyme Inhibition Assay: For enzymology studies of these compounds, recombinant guinea pig liver TGase was expressed in Escherichia coli and effectively purified (Gillet, S. M. F. G. et al J. N., Prot. Exp. & Purif. 2004, 33, 256). […] The mode of inhibition was determined for the representative lead compound.

Question: How did the IC50 turn out when `O=C(/C=C/c1ccc([N+](=O)[O-])cc1)n1ccnc1` was run?
Answer: > 20 µM

Question: How did the IC50 turn out when `O=C(/C=C/c1ccc([N+](=O)[O-])cc1)NCc1ccccc1` was run?
Answer: > 50 µM
